Test results reported in US20200046647A1, “EXOSOME-BASED NANOPARTICLE COMPOSITE AND METHOD FOR PREPARING THE SAME” (Korea University Research and Business Foundation, Sejong …, priority 2017, published 2020).
Structures can show the parent of a compound that is named as a salt.

Experiment: Drug release pattern analysis (dialysis bag, phosphate-buffered saline)
Type: physicochemical
Conditions: within 24 h; body temperature (37° C.); PBS pH 7.4; FIG. 7
Experimental: The core/shell nanoparticle composite prepared in Example 1-1 was sampled, placed in a dialysis bag (molecular weight filtration limit: 100,000), and impregnated with 30 ml of phosphate-buffered saline (PBS, pH 7.4). The amount of the sampled nanoparticle composite was determined such that 10 mg of the doxorubicin-HCl was present in the sample. The phosphate-buffered saline was stirred at 100 rpm while maintaining the temperature at 37.5° C. After the lapse of a predetermined time, 5 ml of the phosphate-buffered saline was sampled. The amount of the drug released was measured by […]. After sampling, the remaining phosphate-buffered saline was completely removed and replaced with a fresh one. The amount of the doxorubicin-HCl released was measured using a UV-Vis spectrometer (G1103A, Agilent, USA).
For comparison, each of doxorubicin-HCl (10 mg) and the liposome-based core/shell nanoparticle composite prepared in Comparative Example 1 (containing 10 mg of doxorubicin-HCl) was added to 10 mL of distilled water. The release behavior of the drug in the aqueous solution was measured by the same procedure as described above.

## COc1cccc2c1C(=O)c1c(O)c3c(c(O)c1C2=O)C[C@@](O)(C(=O)CO)C[C@@H]3O[C@H]1C[C@H](N)[C@H](O)[C@H](C)O1 [doxorubicin-HCl]
  drug released into phosphate-buffered saline: > 95%
